Where a name gives a salt, the structure may show the parent alone.

One experiment concerns ATGL-KO iPSCs. In words: High throughput iPSC chemical screening, Oil Red O (ORO) lipid accumulation. For Z-score: test concentration or dose not given here. Format: cell-based, mouse. The note with it: glycolytic switch compounds.
With `CC1=CC(=O)c2ccccc2C1=O` [Menadione], the “Rank in normalized ORO score from screen” value is 517. In the case of `CSc1ccc2c(c1)C(N1CCN(C)CC1)Cc1ccccc1S2.O=C(O)/C=C\C(=O)O` (centres unmarked) [Methiothepin maleate], the “Rank in normalized ORO score from screen” value stood at 658.

Still in this experiment, the particulars now being: normalized ORO level vs DMSO-treated cells; compound present during 7 days differentiation, 96-well; negative = decrease in lipid accumulation.
For the compound `CCCCCN(CCCCC)C(=O)C(CCC(=O)O)NC(=O)c1ccc(Cl)c(Cl)c1` (centres unmarked) [Lorglumide sodium salt], the Z-score was −1.7664. Consider `CC[C@H](C)C(=O)O[C@H]1C[C@@H](C)C=C2C=C[C@H](C)[C@H](CC[C@@H]3C[C@@H](O)CC(=O)O3)[C@H]21` [Lovastatin], for which the Z-score stood at 6.935. On the same count and under the same terms, the same measure for `CN1CCN(C2=Nc3ccccc3Oc3ccc(Cl)cc32)CC1` [Loxapine succinate]: −0.6976; for `COC1=C[C@@H]2C3=C([C@@H]2C1=O)[C@@H](NC(C)=O)CCc1cc(OC)c(OC)c(OC)c13` [Lumicolchicine gamma]: 0.6596.

In the case of `O=c1cc(-c2ccc(O)c(O)c2)oc2cc(O)cc(O)c12` [Luteolin], the Z-score is reported as −1.0098. In turn, `CN(C)[C@@H]1C(O)=C(C(=O)NCNCCCC[C@H](N)C(=O)O)C(=O)[C@@]2(O)C(O)=C3C(=O)c4c(O)cccc4[C@@](C)(O)[C@H]3C[C@@H]12` [Lymecycline] displayed a Z-score of −1.3365. On the same count and under the same terms, the same measure for `C#C[C@]1(O)CC[C@H]2[C@@H]3CCC4=CCCC[C@@H]4[C@H]3CC[C@@]21C` [Lynestrenol]: −1.3181. Same read-out and setting: in the case of `CN1C[C@H](CO)C=C2c3cccc4[nH]cc(c34)C[C@H]21` [Lysergol] it was −0.3809. The same measure, in the same setting: the same measure for `NCc1ccc(S(N)(=O)=O)cc1` [Mafenide hydrochloride]: 0.8468; for `CNCCCC12CCC(c3ccccc31)c1ccccc12` [Maprotiline hydrochloride]: 0.03741. In turn, `COC(=O)Nc1nc2ccc(C(=O)c3ccccc3)cc2[nH]1` [Mebendazole] came in with a Z-score of 49.935. Same read-out and setting: the same measure for `CCN(CCCCOC(=O)c1ccc(OC)c(OC)c1)C(C)Cc1ccc(OC)cc1` (centres unmarked) [Mebeverine hydrochloride]: 0.1096; for `CN1CCc2c(c3ccccc3n2Cc2ccccc2)C1.O=S(=O)(O)c1cccc2c(S(=O)(=O)O)cccc12` [Mebhydroline 1,5-naphtalenedisulfonate]: 0.4999.

Regarding `CNC1(C)C2CCC(C2)C1(C)C` (centres unmarked) [Mecamylamine hydrochloride], the Z-score is 2.563. Regarding `C=C1c2c(Cl)ccc(O)c2C(=O)C2=C(O)[C@]3(O)C(=O)C(C(N)=O)=C(O)[C@@H](N(C)C)[C@@H]3[C@@H](O)[C@H]12.O=C(O)c1cc(S(=O)(=O)O)ccc1O` [Meclocycline sulfosalicylate], the Z-score was determined as 8.326. The same measure, in the same setting: in the case of `CN(C)CCOC(=O)COc1ccc(Cl)cc1` [Meclofenoxate hydrochloride] it was 0.4945; in that of `Cc1cccc(CN2CCN(C(c3ccccc3)c3ccc(Cl)cc3)CC2)c1` (centres unmarked) [Meclozine dihydrochloride], 1.227; in that of `CC(=O)[C@H]1CC[C@H]2[C@@H]3C[C@H](C)C4=CC(=O)CC[C@]4(C)[C@H]3[C@@H](O)C[C@]12C` [Medrysone], −0.1611.

Turning to `Cc1cccc(Nc2ccccc2C(=O)O)c1C` [Mefenamic acid], the Z-score is −0.2407.

With `CCN(CC)CCNC(=O)COc1ccc(OC)cc1` [Mefexamide hydrochloride], the Z-score is listed as −0.2169. For `CC(=O)O[C@]1(C(C)=O)CC[C@H]2[C@@H]3C=C(C)C4=CC(=O)CC[C@]4(C)[C@H]3CC[C@@]21C` [Megestrol acetate], the Z-score is 1.362. Still for that read-out and setting: in the case of `CNC[C@H](O)[C@@H](O)[C@H](O)[C@H](O)CO` [Meglumine] it was −1.1536; in that of `COc1ccc2[nH]cc(CCNC(C)=O)c2c1` [Melatonin], 0.08162; in that of `CC12CC3CC(C)(C1)CC(N)(C3)C2` [Memantine Hydrochloride], −1.2487. Same read-out and setting: the same measure for `CC1=CC(=O)c2ccccc2C1=O` [Menadione]: −0.29; for `C[N+]1(C)CCCC(OC(=O)C(O)(c2ccccc2)c2ccccc2)C1` (centres unmarked) [Mepenzolate bromide]: −0.115. The same measure, in the same setting: the same measure for `Cc1ccccc1OCC(O)CO` (centres unmarked) [Mephenesin]: −0.9401; for `CCC1(c2ccccc2)NC(=O)N(C)C1=O` (centres unmarked) [Mephenytoin]: 0.8864; for `CCCNC(C)(C)COC(=O)c1ccccc1` [Meprylcaine hydrochloride]: −0.9597. As to `CCC1(c2cccc(O)c2)CCCCN(C)C1` (centres unmarked) [Meptazinol hydrochloride], the Z-score is −1.0631. On the same count and under the same terms, the same measure for `C[C@@H](O)[C@H]1C(=O)N2C(C(=O)O)=C(S[C@@H]3CN[C@H](C(=O)N(C)C)C3)[C@H](C)[C@H]12` [Meropenem]: 0.5806; for `Nc1ccc(O)c(C(=O)O)c1` [Mesalamine]: −0.1803. On the same count and under the same terms, in the case of `CN1CCCCC1CCN1c2ccccc2Sc2ccc([S+](C)[O-])cc21` (centres unmarked) [Mesoridazine besylate] it was −0.5525; in that of `C=N[C@@H](C(=O)N[C@@H]1C(=O)N2[C@@H]1SC(C)(C)[C@@H]2C(=O)O)c1ccccc1` [Metampicillin sodium salt], 0.638. Same read-out and setting: the same measure for `CNCC(O)c1ccc(O)c(OC)c1.Cl` (stereo not drawn) [Metanephrine hydrochloride DL]: −1.0419. On to `C[C@H](N)[C@H](O)c1cccc(O)c1` [Metaraminol bitartrate], for which the Z-score was −0.9024. On the same count and under the same terms, in the case of `CN1C[C@H](CNC(=O)OCc2ccccc2)C[C@@H]2c3cccc4c3c(cn4C)C[C@H]21` [Metergoline] it was 0.5474; in that of `CN(C)C(=N)N=C(N)N` [Metformin hydrochloride], 0.7664; in that of `CC(=O)OC(C)C[N+](C)(C)C` (centres unmarked) [Methacholine chloride], −0.8044. On the same count and under the same terms, the same measure for `C=C1c2cccc(O)c2C(=O)C2=C(O)[C@]3(O)C(=O)C(C(N)=O)=C(O)[C@@H](N(C)C)[C@@H]3[C@@H](O)[C@H]12` [Methacycline hydrochloride]: 2.309; for `CC[N+](C)(CC)CCOC(=O)C1c2ccccc2Oc2ccccc21` [Methantheline bromide]: −0.7033.

Compound `CN(C)CCN(Cc1cccs1)c1ccccn1` [Methapyrilene hydrochloride] had a Z-score of −0.1861.

With `CC(=O)/N=c1/sc(S(N)(=O)=O)nn1C` [Methazolamide], the Z-score was 0.06841. For the compound `COC(=O)Nc1nc2ccc(SC(C)C)cc2[nH]1` [Methiazole], the Z-score was 19.8245. Same read-out and setting: the same measure for `Cn1cc[nH]c1=S` [Methimazole]: 0.6934. Still for that read-out and setting: in the case of `CS(=N)(=O)CC[C@H](N)C(=O)O` (some centres unmarked) [Methionine sulfoximine (L)] it was −0.2829; in that of `CSc1ccc2c(c1)C(N1CCN(C)CC1)Cc1ccccc1S2.O=C(O)/C=C\C(=O)O` (centres unmarked) [Methiothepin maleate], 0.08061.

In turn, `COc1ccccc1OCC(O)COC(N)=O` (centres unmarked) [Methocarbamol] showed a Z-score of −1.1429. On the same count and under the same terms, in the case of `CN(Cc1cnc2nc(N)nc(N)c2n1)c1ccc(C(=O)N[C@@H](CCC(=O)O)C(=O)O)cc1` [Methotrexate] it was 7.697; in that of `COc1ccc2c(c1)N(C[C@H](C)CN(C)C)c1ccccc1S2.O=C(O)/C=C\C(=O)O` [Methotrimeprazine maleat salt], 1.548. `COc1ccc(OC)c(C(O)C(C)N)c1` (centres unmarked) [Methoxamine hydrochloride]: the Z-score turned out to be 0.4239. On the same count and under the same terms, in the case of `COc1ccc2[nH]c3c(c2c1)CCN=C3C` [Methoxy-6-harmalan] it was 1.201. In turn, `COc1c2occc2cc2ccc(=O)oc12` [Methoxy-8-psoralen] returned a Z-score of 1.942. Same read-out and setting: the same measure for `Cc1cc(C(C)(C)CC(C)(C)C)ccc1OCCOCC[N+](C)(C)Cc1ccccc1.[Cl-]` [Methyl benzethonium chloride]: 12.6356. Consider `C[N+]1(C)[C@@H]2CC[C@H]1C[C@@H](OC(=O)C(CO)c1ccccc1)C2` (some centres unmarked) [Methylatropine nitrate], for which the Z-score is recorded as −1.1494.

`C[C@](N)(Cc1ccc(O)c(O)c1)C(=O)O` [Methyldopa (L,−)] displayed a Z-score of 0.02395. The same measure, in the same setting: the same measure for `CCOC(=O)[C@@](C)(N)Cc1ccc(O)c(O)c1` [Methyldopate hydrochloride]: 0.5054. The same measure, in the same setting: the same measure for `CC[C@@H](CO)NC(=O)[C@@H]1C=C2c3cccc4[nH]cc(c34)C[C@H]2N(C)C1` [Methylergometrine maleate]: 0.02492. Still for that read-out and setting: the same measure for `C[C@H]1NC(=O)NC1=O` [Methylhydantoin-5-(D)]: −0.6204; for `C[C@@H]1NC(=O)NC1=O` [Methylhydantoin-5-(L)]: −0.97; for `C[C@H]1C[C@@H]2[C@H]([C@@H](O)C[C@@]3(C)[C@H]2CC[C@]3(O)C(=O)CO)[C@@]2(C)C=CC(=O)C=C12` [Methylprednisolone, 6-alpha]: −1.1745.

On to `Cc1cc2c(cc1S(N)(=O)=O)S(=O)(=O)CCC2` [Meticrane], for which the Z-score was −0.0455. Still for that read-out and setting: the same measure for `CN1CCCC(CC2c3ccccc3Sc3ccccc32)C1` (centres unmarked) [Metixene hydrochloride]: −0.8136; for `CCN(CC)CCNC(=O)c1cc(Cl)c(N)cc1OC` [Metoclopramide monohydrochloride]: −1.0824; for `Cc1ccccc1N1C(=O)c2cc(S(N)(=O)=O)c(Cl)cc2NC1C` (centres unmarked) [Metolazone]: −0.7452. Still for that read-out and setting: the same measure for `CC(=O)Nc1c(I)c(C(=O)N[C@H]2C(O)O[C@H](CO)[C@@H](O)[C@@H]2O)c(I)c(N(C)C(C)=O)c1I` (some centres unmarked) [Metrizamide]: 1.8943; for `Cc1ncc([N+](=O)[O-])n1CCO` [Metronidazole]: 0.716. Same read-out and setting: in the case of `CC(C)(C(=O)c1cccnc1)c1cccnc1` [Metyrapone] it was −1.7744; in that of `C[C@@]1(O)CCOC(=O)C1` [Mevalonic-D, L acid lactone], −1.4333. Turning to `Cc1cccc(C)c1OCC(C)N` (centres unmarked) [Mexiletine hydrochloride], the Z-score stood at 1.054. On the same count and under the same terms, the same measure for `CN1CCN2c3ccccc3Cc3ccccc3C2C1` (centres unmarked) [Mianserine hydrochloride]: −1.3517. The compound `Clc1ccc(COC(Cn2ccnc2)c2ccc(Cl)cc2Cl)c(Cl)c1` (centres unmarked) [Miconazole] showed a Z-score of −0.018.

Values taken from US9393221B2, “Methods and compounds for reducing intracellular lipid storage” (THE GENERAL HOSPITAL CORPORATION, priority 2011, dated 2016).
